Values after ≈ are worked out from the molar mass of the structure shown.
Tests used:
[1] = tested on: Prescottella equi; test: Antimicrobial activity against Rhodococcus equi; format: functional; details: Rhodococcus (subgen. Prescottella) equi
[2] = tested on: Bacillus subtilis; test: Antimicrobial activity against Bacillus subtilis assessed as zone of inhibition at 5 mg/ml after 24 to 48 hrs by well diffusion method; format: functional; details: read-out: IZ
[3] = tested on: Salmonella typhimurium; test: Antimicrobial activity against Salmonella typhimurium; format: functional, Salmonella enterica subsp. enterica serovar Typhimurium; details: Salmonella enterica
[4] = tested on: Proteus mirabilis; test: Antimicrobial activity against Proteus mirabilis; format: functional
[5] = tested on: Streptococcus pneumoniae; test: Antimicrobial activity against Streptococcus pneumoniae; format: functional
[6] = tested on: Bacillus thuringiensis; test: Antimicrobial activity against Bacillus thuringiensis; format: functional
[7] = tested on: Bacillus subtilis; test: Antimicrobial activity against Bacillus subtilis; format: functional
[8] = tested on: Proteus vulgaris; test: Antimicrobial activity against Proteus vulgaris; format: functional
[9] = tested on: Staphylococcus aureus; test: Antimicrobial activity against Staphylococcus aureus ATCC 25923 assessed as zone of inhibition at 100 ug/ml after 24 hrs by disc diffusion method; format: functional; details: ATCC 25923, 24 h, read-out: IZ
[10] = tested on: Staphylococcus aureus; test: Antimicrobial activity against Staphylococcus aureus assessed as zone of inhibition at 5 mg/ml after 24 to 48 hrs by well diffusion method; format: functional; details: read-out: IZ
[11] = tested on: Staphylococcus aureus; test: Antimicrobial activity against Staphylococcus aureus assessed as zone of inhibition at 0.001 mol/cm3; format: functional
[12] = tested on: Bacillus cereus; test: Antimicrobial activity against Bacillus cereus assessed as zone of inhibition at 0.001 mol/cm3; format: functional
[13] = tested on: Escherichia coli; test: Antimicrobial activity against Escherichia coli assessed as zone of inhibition at 0.001 mol/cm3; format: functional
[14] = tested on: Escherichia coli; test: Antimicrobial activity against Escherichia coli; format: functional
[15] = tested on: Candida tropicalis; test: Antifungal activity against Candida tropicalis; format: functional
[16] = tested on: Nakaseomyces glabratus; test: Antifungal activity against Candida glabrata; format: functional
[17] = tested on: Pseudomonas aeruginosa; test: Antimicrobial activity against Pseudomonas aeruginosa; format: functional
[18] = tested on: Staphylococcus aureus; test: Antimicrobial activity against Staphylococcus aureus; format: functional
[19] = tested on: Pichia kudriavzevii; test: Antifungal activity against Candida krusei
[20] = tested on: Candida albicans; test: Antifungal activity against Candida albicans; format: functional
[21] = tested on: NIH3T3; test: Cytotoxicity against mouse NIH/3T3 cells assessed as reduction in cell viability; format: cell-based
[22] = tested on: C6; test: Anticancer activity against rat C6 cells; format: functional, cell-based
[23] = tested on: Bacillus cereus; test: Antimicrobial activity against Bacillus cereus; format: functional
[24] = tested on: Klebsiella pneumoniae; test: Antimicrobial activity against Klebsiella pneumoniae after 24 hrs by agar disk diffusion method; format: functional
[25] = tested on: Escherichia coli; test: Antimicrobial activity against Escherichia coli after 24 hrs by agar disk diffusion method; format: functional
[26] = tested on: Klebsiella pneumoniae; test: Antimicrobial activity against Klebsiella pneumoniae ATCC 700603 assessed as zone of inhibition at 100 ug/ml after 24 hrs by disc diffusion method; format: functional; details: ATCC 700603, 24 h, read-out: IZ
[27] = tested on: Pseudomonas aeruginosa; test: Antimicrobial activity against Pseudomonas aeruginosa after 24 hrs by agar disk diffusion method; format: functional
[28] = tested on: Proteus mirabilis; test: Antimicrobial activity against Proteus mirabilis after 24 hrs by agar disk diffusion method; format: functional
[29] = tested on: Aspergillus niger; test: Antifungal activity against Aspergillus niger; format: functional
[30] = tested on: Escherichia coli; test: Antimicrobial activity against Escherichia coli assessed as zone of inhibition at 600 ug/ml after 24 hrs by disk diffusion method; format: functional; details: read-out: IZ

Compound: CC1(C)S[C@@H]2[C@H](NC(=O)Cc3ccccc3)C(=O)N2[C@H]1C(=O)O [PENICILLIN G]
- MIC [1]: 0.063 to 8 µg/mL (≈ 0.188 to 23.9 µM)
- zone of inhibition at 5000 µg/mL [2]: 26.2 mm
- MIC [3]: 0.063 to 8 µg/mL (≈ 0.188 to 23.9 µM)
- MIC [4]: 0.063 to 8 µg/mL (≈ 0.188 to 23.9 µM)
- MIC [5]: 0.063 to 8 µg/mL (≈ 0.188 to 23.9 µM)
- MIC [6]: 0.063 to 8 µg/mL (≈ 0.188 to 23.9 µM)
- MIC [7]: 0.063 to 8 µg/mL (≈ 0.188 to 23.9 µM)
- MIC [8]: 0.063 to 8 µg/mL (≈ 0.188 to 23.9 µM)
- zone of inhibition at 100 µg/mL [9]: 10 to 24 mm
- zone of inhibition at 5000 µg/mL [10]: 24.6 mm

Compound: CCOC(=O)c1c(-n2cnnn2)sc(C(=O)c2ccccc2)c1C
- inhibition zone (IZ) [11]: 22 - 24 mm
- inhibition zone (IZ) [12]: 22 - 24 mm
- inhibition zone (IZ) [13]: 22 - 24 mm

Compound: Fc1cc2nc(SCc3ccc(-c4ccccc4-c4nnnn4C(c4ccccc4)(c4ccccc4)c4ccccc4)cc3)[nH]c2cc1-n1ccnc1
- MIC [14]: 16 to 64 µg/mL (≈ 22.5 to 90 µM)
- MIC [15]: 16 to 64 µg/mL (≈ 22.5 to 90 µM)
- MIC [16]: 16 to 64 µg/mL (≈ 22.5 to 90 µM)
- MIC [7]: 16 to 64 µg/mL (≈ 22.5 to 90 µM)
- MIC [17]: 16 to 64 µg/mL (≈ 22.5 to 90 µM)
- MIC [18]: 16 to 64 µg/mL (≈ 22.5 to 90 µM)
- MIC [19]: 16 to 64 µg/mL (≈ 22.5 to 90 µM)
- MIC [20]: 16 to 64 µg/mL (≈ 22.5 to 90 µM)

Compound: O=C(CSc1nnnn1-c1ccccc1)N/N=c1\scc(-c2ccccc2)n1-c1ccccc1
- IC50 [21]: 417 µg/mL (≈ 858 µM)
- IC50 [22]: 8.3 µg/mL (≈ 17.1 µM)

Compound: CC1(C)S[C@@H]2[C@H](NC(=O)[C@H](N)c3ccccc3)C(=O)N2[C@H]1C(=O)O [AMPICILLIN]
- MIC [23]: 6.25 µg/mL (≈ 17.9 µM)
- MIC [24]: 6.25 µg/mL (≈ 17.9 µM)
- MIC [14]: 2 to 250 µg/mL (≈ 5.72 to 715 µM)
- MIC [25]: 6.25 µg/mL (≈ 17.9 µM)
- MIC [15]: 2 to 64 µg/mL (≈ 5.72 to 183 µM)
- MIC [16]: 2 to 64 µg/mL (≈ 5.72 to 183 µM)
- zone of inhibition at 100 µg/mL [26]: 15 mm
- MIC [7]: 2 to 64 µg/mL (≈ 5.72 to 183 µM)
- MIC [17]: 2 to 250 µg/mL (≈ 5.72 to 715 µM)
- MIC [18]: 2 to 250 µg/mL (≈ 5.72 to 715 µM)
- MIC [19]: 2 to 64 µg/mL (≈ 5.72 to 183 µM)
- MIC [27]: 6.25 µg/mL (≈ 17.9 µM)
- MIC [28]: 6.25 µg/mL (≈ 17.9 µM)
- MIC [29]: 100 to 250 µg/mL (≈ 286 to 715 µM)
- MIC [20]: 2 to 250 µg/mL (≈ 5.72 to 715 µM)
- zone of inhibition at 100 µg/mL [9]: 16.5 mm

Compound: c1ccc2c(c1)sc1nnnn12
- zone of inhibition at 600 µg/mL [30]: 15 to 20 mm

Reference: ChEMBL document CHEMBL4342421, “Current scenario of tetrazole hybrids for antibacterial activity” (Eur J Med Chem, 2019)
